Data reported in PubChem BioAssay (NCI).
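Grown in 96-well plates, cells were treated for 48 hours with each compound at five concentrations. Insufficient inhibition: endpoint recorded as highest concentration tested. GI50 = concentration required for 50% inhibition of growth. At the TGI there is no net growth.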

Tests used:
Test in all cases: NCI anticancer screen, dose series, 48 h
[1] = test system: 786-0 renal
[2] = test system: A498 renal
[3] = test system: A549 NSCLC
[4] = test system: ACHN renal
[5] = test system: BT-549 breast
[6] = test system: CAKI-1 renal
[7] = test system: CCRF-CEM leukemia
[8] = test system: COLO 205 colon
[9] = test system: DU-145 prostate
[10] = test system: EKVX NSCLC
[11] = test system: HCC-2998 colon
[12] = test system: HCT-116 colon
[13] = test system: HCT-15 colon
[14] = test system: HL-60(TB) leukemia
[15] = test system: HOP-62 NSCLC
[16] = test system: HOP-92 NSCLC
[17] = test system: HS 578T breast
[18] = test system: HT29 colon
[19] = test system: IGROV1 ovarian
[20] = test system: K-562 leukemia
[21] = test system: KM12 colon
[22] = test system: LOX IMVI melanoma
[23] = test system: M14 melanoma
[24] = test system: MALME-3M melanoma
[25] = test system: MCF7 breast
[26] = test system: MDA-MB-231 breast
[27] = test system: MDA-MB-435
[28] = test system: MDA-N
[29] = test system: MOLT-4 leukemia
[30] = test system: NCI-H226 lung
[31] = test system: NCI-H23 lung
[32] = test system: NCI-H460 lung
[33] = test system: NCI-H522 lung
[34] = test system: NCI/ADR-RES ovarian
[35] = test system: OVCAR-3 ovarian
[36] = test system: OVCAR-4 ovarian
[37] = test system: OVCAR-5 ovarian
[38] = test system: OVCAR-8 ovarian
[39] = test system: PC-3 prostate
[40] = test system: RPMI-8226 leukemia
[41] = test system: RXF 393 renal
[42] = test system: SF-268 CNS
[43] = test system: SF-295 CNS
[44] = test system: SF-539 CNS
[45] = test system: SK-MEL-2 melanoma
[46] = test system: SK-MEL-28 melanoma
[47] = test system: SK-MEL-5 melanoma
[48] = test system: SK-OV-3 ovarian
[49] = test system: SN12C renal
[50] = test system: SNB-19 CNS
[51] = test system: SNB-75 CNS
[52] = test system: SR leukemia
[53] = test system: SW-620 colon
[54] = test system: T-47D breast
[55] = test system: TK-10 renal
[56] = test system: U251 CNS
[57] = test system: UACC-257 melanoma
[58] = test system: UACC-62 melanoma
[59] = test system: UO-31 renal

For `CN1CCC(CN2c3ccccc3Sc3ccccc32)C1` (centres undefined), the TGI [1] was 27.9 µM, the TGI [2] was 26.2 µM and the TGI [3] was 32.2 µM. For the same molecule, the TGI [4] was 27.9 µM, the TGI [5] was 30.8 µM and the TGI [6] was 28.8 µM. It also gave a TGI [7] of 31.6 µM, a TGI [8] of 25.2 µM and a TGI [9] of 38.1 µM. The TGI [10] was 31.5 µM, the TGI [11] was 24.7 µM and the TGI [12] was 26.9 µM. For the same molecule, the TGI [13] was 31.4 µM, the TGI [14] was 29.7 µM and the TGI [15] was 28.5 µM. For the same molecule, the TGI [16] was 29.5 µM, the TGI [17] was 36.7 µM and the TGI [18] was 23.8 µM. It also gave a TGI [19] of 31.6 µM, a TGI [20] of 27.4 µM and a TGI [21] of 34.5 µM. It also gave a TGI [22] of 30 µM, a TGI [23] of 23.5 µM and a TGI [24] of 31.7 µM. For the same molecule, the TGI [25] was 35 µM, the TGI [26] was 27.4 µM and the TGI [27] was 23.7 µM. For the same molecule, the TGI [28] was 27.7 µM, the TGI [29] was 38.7 µM and the TGI [30] was 35 µM. It also gave a TGI [31] of 36 µM, a TGI [32] of 28.2 µM and a TGI [33] of 32 µM. It also gave a TGI [34] of 29.8 µM, a TGI [35] of 28.6 µM and a TGI [36] of 28.1 µM. The TGI [37] was 31.8 µM, the TGI [38] was 31.9 µM and the TGI [39] was 25.4 µM. It also gave a TGI [40] of 33.8 µM, a TGI [41] of 17.4 µM and a TGI [42] of 29.5 µM. It also gave a TGI [43] of 29.8 µM, a TGI [44] of 31.9 µM and a TGI [45] of 30.6 µM. It also gave a TGI [46] of 19.4 µM, a TGI [47] of 27.7 µM and a TGI [48] of 31.6 µM. The TGI [49] was 29.1 µM, the TGI [50] was 33.1 µM and the TGI [51] was 11.1 µM. For the same molecule, the TGI [52] was 29.6 µM, the TGI [53] was 35.7 µM and the TGI [54] was 34.2 µM. For the same molecule, the TGI [55] was 31.4 µM, the TGI [56] was 26.6 µM and the TGI [57] was 24.4 µM. For the same molecule, the TGI [58] was 25.9 µM and the TGI [59] was 30 µM.
`CC1=CC(C)C(C)N(CC2=NCCN2)c2ccccc21` (centres undefined) gave a TGI [1] of over 100 µM, a TGI [2] of over 100 µM and a TGI [3] of over 100 µM. For the same molecule, the TGI [4] was over 100 µM, the TGI [5] was over 100 µM and the TGI [6] was over 100 µM. It also gave a TGI [7] of over 100 µM, a TGI [8] of 32.3 µM and a TGI [9] of over 100 µM. It also gave a TGI [10] of over 100 µM, a TGI [11] of 33.9 µM and a TGI [12] of over 100 µM. It also gave a TGI [13] of over 100 µM, a TGI [14] of over 89.3 µM and a TGI [15] of over 100 µM. For the same molecule, the TGI [16] was 45.6 µM, the TGI [17] was over 100 µM and the TGI [18] was 45.8 µM. It also gave a TGI [19] of over 100 µM, a TGI [20] of over 100 µM and a TGI [21] of over 100 µM. For the same molecule, the TGI [22] was over 100 µM, the TGI [23] was 32.7 µM and the TGI [24] was 44.6 µM. For the same molecule, the TGI [25] was over 100 µM, the TGI [26] was over 100 µM and the TGI [27] was over 100 µM. It also gave a TGI [28] of over 100 µM, a TGI [29] of over 100 µM and a TGI [30] of over 100 µM. It also gave a TGI [31] of over 100 µM, a TGI [32] of over 100 µM and a TGI [33] of over 100 µM. It also gave a TGI [34] of over 100 µM, a TGI [35] of over 100 µM and a TGI [36] of over 100 µM. It also gave a TGI [37] of over 100 µM, a TGI [38] of over 100 µM and a TGI [39] of over 100 µM. It also gave a TGI [40] of over 100 µM, a TGI [41] of over 89.9 µM and a TGI [42] of over 100 µM. The TGI [43] was over 100 µM, the TGI [44] was over 100 µM and the TGI [45] was over 92.1 µM. The TGI [46] was 38.5 µM, the TGI [47] was 36.4 µM and the TGI [48] was over 100 µM. For the same molecule, the TGI [49] was over 100 µM, the TGI [50] was over 100 µM and the TGI [51] was over 85.5 µM. For the same molecule, the TGI [52] was over 82.4 µM, the TGI [53] was over 100 µM and the TGI [54] was over 100 µM. The TGI [55] was over 100 µM, the TGI [56] was over 100 µM and the TGI [57] was 37.1 µM. It also gave a TGI [58] of over 100 µM and a TGI [59] of over 100 µM.
`NC(N)=N/N=C(\c1ccc(F)cc1)c1ccc(C(F)(F)F)cc1` was tested, and the TGI [1] was 1.59 µM, the TGI [2] was 0.333 µM and the TGI [3] was 4.96 µM. It also gave a TGI [4] of 10.1 µM, a TGI [5] of 4.02 µM and a TGI [6] of 4.98 µM. For the same molecule, the TGI [7] was 5.43 µM, the TGI [8] was 0.877 µM and the TGI [9] was 7.76 µM. It also gave a TGI [10] of 11.3 µM, a TGI [11] of 1.75 µM and a TGI [12] of 1.28 µM. For the same molecule, the TGI [13] was 7.45 µM, the TGI [14] was 0.762 µM and the TGI [15] was 0.955 µM. It also gave a TGI [16] of 8.59 µM, a TGI [17] of 1.85 µM and a TGI [18] of 4.98 µM. The TGI [19] was 1.49 µM, the TGI [20] was 2.08 µM and the TGI [21] was 2.04 µM. The TGI [22] was 1.64 µM, the TGI [23] was 1.35 µM and the TGI [24] was 2.53 µM. For the same molecule, the TGI [25] was 2.15 µM, the TGI [26] was 1.15 µM and the TGI [27] was 0.298 µM. The TGI [28] was 0.494 µM, the TGI [29] was 1.44 µM and the TGI [30] was 0.783 µM. For the same molecule, the TGI [31] was 7.29 µM, the TGI [32] was 2.09 µM and the TGI [33] was 0.525 µM. It also gave a TGI [34] of 4.35 µM, a TGI [35] of 1.59 µM and a TGI [36] of 15.9 µM. The TGI [37] was 9.74 µM, the TGI [38] was 3.09 µM and the TGI [39] was 5.51 µM. For the same molecule, the TGI [40] was 2.21 µM, the TGI [41] was 0.633 µM and the TGI [42] was 9.96 µM. It also gave a TGI [43] of 0.817 µM, a TGI [44] of 0.749 µM and a TGI [45] of 4.06 µM. It also gave a TGI [46] of 8 µM, a TGI [47] of 3.67 µM and a TGI [48] of 4.94 µM. The TGI [49] was 9.05 µM, the TGI [50] was 14.3 µM and the TGI [51] was 7.77 µM. For the same molecule, the TGI [52] was 1.47 µM, the TGI [53] was 2.04 µM and the TGI [54] was 5.82 µM. For the same molecule, the TGI [55] was 13.6 µM, the TGI [56] was 4.72 µM and the TGI [57] was 4.63 µM. It also gave a TGI [58] of 1.55 µM and a TGI [59] of 4.13 µM.
`O=S(=O)(Nc1nccs1)c1ccc(Nc2nc(-c3cccs3)nc3ccc(I)cc23)cc1` was tested, and the TGI [1] was 89.4 µM, the GI50 [2] was 17.4 µM and the TGI [2] was over 62.3 µM. For the same molecule, the TGI [3] was 71.2 µM, the TGI [4] was over 75.2 µM and the TGI [5] was 54 µM. The TGI [6] was 48.7 µM, the TGI [7] was over 19.9 µM and the TGI [8] was 38.2 µM. The TGI [9] was 46.5 µM, the TGI [10] was 48.1 µM and the TGI [11] was 51.5 µM. It also gave a TGI [12] of 36.8 µM, a TGI [13] of over 80.9 µM and a TGI [14] of over 89.3 µM. For the same molecule, the TGI [15] was 51.1 µM, the TGI [16] was 40 µM and the GI50 [17] was 14 µM. The TGI [17] was over 70 µM, the TGI [18] was 51.7 µM and the TGI [19] was 58.7 µM. It also gave a TGI [20] of over 55.8 µM, a TGI [21] of 44.1 µM and a TGI [22] of 51.8 µM. For the same molecule, the TGI [23] was 58.5 µM, the TGI [24] was 44.2 µM and the TGI [25] was over 100 µM. For the same molecule, the GI50 [26] was over 37.8 µM, the TGI [26] was over 57.2 µM and the TGI [27] was 44 µM. The TGI [28] was over 100 µM, the TGI [29] was over 62.4 µM and the TGI [30] was 74.8 µM. The TGI [31] was over 75.8 µM, the TGI [32] was over 81.6 µM and the TGI [33] was over 73.1 µM. The TGI [34] was over 100 µM, the TGI [35] was 39.9 µM and the TGI [36] was 63.2 µM. For the same molecule, the TGI [37] was 86.3 µM, the TGI [38] was over 69.4 µM and the TGI [39] was 32.7 µM. It also gave a TGI [40] of 20.1 µM, a TGI [41] of over 92.2 µM and a TGI [42] of over 100 µM. The TGI [43] was 43.1 µM, the TGI [44] was 68.3 µM and the TGI [45] was over 77.9 µM. It also gave a TGI [46] of 56 µM, a TGI [47] of 28.4 µM and a TGI [48] of 67 µM. The TGI [49] was over 74.6 µM, the TGI [50] was over 93 µM and the TGI [51] was 74 µM. It also gave a TGI [52] of 68.4 µM, a TGI [53] of over 59.6 µM and a TGI [54] of 56.6 µM. The TGI [55] was 44.5 µM, the TGI [56] was 54.7 µM and the TGI [57] was over 65.7 µM. It also gave a TGI [58] of 52.6 µM and a TGI [59] of 65.1 µM.
